From the NIST ThermoML archive (doi:10.1016/j.tca.2008.09.005)
Numbers after ± are expanded uncertainties.

Assays:
[1] = 298.15 K, 101.33 kPa, Liquid
[2] = refractive index (Na D-line) (dimensionless); conditions: 298.15 K; 101.33 kPa; Liquid; Standard Abbe refractometry

Row | electrical conductivity [1] | mass density ([1]; Vibrating tube method) | refractive index [2] | SMILES
1 | 1.3e-05 ± 1e-06 S/m | – | – | O [water]
2 | – | 1052.23 ± 1.2 kg/m3 | 1.4713 ± 0.0008 | CN1CCN(C)C1=O [1,3-dimethyl-2-imidazolidinone]
